These compounds were tested against Recombinant Human Poly(ADP-Ribose) Polymerase (PARP), PARP-1 (Homo sapiens (Human), UniProt P09874). Conditions: read-out: PARP-1 (Ki); Table 1; text calls the values EC50s.
Recombinant Human Poly(ADP-Ribose) Polymerase (PARP), PARP-1, sequence (P09874 whole entry): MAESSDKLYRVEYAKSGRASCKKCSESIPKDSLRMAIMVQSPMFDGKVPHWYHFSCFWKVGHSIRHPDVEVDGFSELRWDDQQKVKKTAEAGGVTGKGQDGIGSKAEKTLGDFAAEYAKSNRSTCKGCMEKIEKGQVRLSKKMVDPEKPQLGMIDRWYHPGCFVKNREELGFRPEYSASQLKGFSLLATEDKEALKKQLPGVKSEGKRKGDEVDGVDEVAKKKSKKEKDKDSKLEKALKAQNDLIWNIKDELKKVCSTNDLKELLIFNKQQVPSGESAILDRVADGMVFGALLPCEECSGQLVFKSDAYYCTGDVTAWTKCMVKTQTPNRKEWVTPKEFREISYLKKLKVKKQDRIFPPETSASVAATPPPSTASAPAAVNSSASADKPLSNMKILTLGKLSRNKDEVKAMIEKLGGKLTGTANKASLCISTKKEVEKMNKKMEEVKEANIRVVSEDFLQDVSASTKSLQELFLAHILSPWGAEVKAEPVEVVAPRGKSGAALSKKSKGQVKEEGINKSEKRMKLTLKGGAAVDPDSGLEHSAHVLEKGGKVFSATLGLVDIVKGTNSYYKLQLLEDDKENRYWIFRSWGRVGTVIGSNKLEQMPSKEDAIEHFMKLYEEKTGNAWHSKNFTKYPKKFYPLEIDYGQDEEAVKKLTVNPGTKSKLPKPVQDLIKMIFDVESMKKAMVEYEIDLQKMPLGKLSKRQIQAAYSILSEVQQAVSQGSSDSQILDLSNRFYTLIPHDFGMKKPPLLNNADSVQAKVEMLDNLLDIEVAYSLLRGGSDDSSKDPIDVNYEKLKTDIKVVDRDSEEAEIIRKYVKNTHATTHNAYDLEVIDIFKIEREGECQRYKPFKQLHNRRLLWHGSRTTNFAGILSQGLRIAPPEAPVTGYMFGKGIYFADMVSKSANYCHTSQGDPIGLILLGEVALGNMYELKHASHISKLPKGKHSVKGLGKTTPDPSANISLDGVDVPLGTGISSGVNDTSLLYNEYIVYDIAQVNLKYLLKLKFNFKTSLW
Experimental: Nicotinamide[2,5′,8-3H]adenine dinucleotide and strepavidin SPA beads were purchased from Amersham Biosiences. […] NAD^+, histone, aminobenzamide, 3-amino benzamide and Calf Thymus DNA (dcDNA) were purchased from Sigma. Stem loop oligonucleotide containing MCAT sequence was obtained from Qiagen. The oligos were dissolved to 1 mM in annealing buffer containing 10 mM Tris HCl pH 7.5, 1 mM EDTA, and 50 mM NaCl, incubated for 5 minutes at 95° C., and annealed at 45° C. for 45 minutes. […] Biotinylated histone H1 was prepared by treating the protein with Sulfo-NHS-LC-Biotin from Pierce. The biotinylation reaction was conducted by slowly and intermittently adding 3 equivalents of 10 mM Sulfo-NHS-LC-Biotin to 100 μM Histone H1 in phosphate-buffered saline, pH 7.5, at 4° C. with gentle vortexing over 1 minute followed by subsequent 4° C. incubation for 1 hour. Streptavidin coated (FlashPlate Plus) microplates were purchased from Perkin Elmer.
PARP1 assay was conducted in PARP assay buffer containing 50 mM Tris pH 8.0, 1 mM DTT, 4 mM MgCl2. […] Auto reactions utilizing SPA bead-based detection were carried out in 100 μL volumes in white 96 well plates.

Ki [nM] | SMILES
0.8 | O=C(c1cnc2ccccc2c1)N1CCN(C(=O)c2cc(Cc3n[nH]c(=O)c4c3NCCC4)ccc2F)CC1 [Example 657, 8-(4-fluoro-3-{[4-(quinolin-3-ylcarbonyl)piperazin-1-yl]carbonyl}benzyl)-2,3,4,6-tetrahydropyrido[2,3-d]pyridazin-5(1H)-one]
1 | O=C(c1cc(Cc2n[nH]c(=O)c3c2NCCC3)ccc1F)N1CCN(C(=O)c2cccnc2Cl)CC1 [Example 658, 8-[3-({4-[(2-chloropyridin-3-yl)carbonyl]piperazin-1-yl}carbonyl)-4-fluorobenzyl]-2,3,4,6-tetrahydropyrido[2,3-d]pyridazin-5(1H)-one]
2.5 | O=C(OCc1ccccc1)N1CCCN(C(=O)c2cc(Cc3n[nH]c(=O)c4c3NCCC4)ccc2F)CC1 [Example 659, benzyl 4-{2-fluoro-5-[(5-oxo-1,2,3,4,5,6-hexahydropyrido[2,3-d]pyridazin-8-yl)methyl]benzoyl}-1,4-diazepane-1-carboxylate]
1.4 | O=C(c1ccncc1)N1CCN(C(=O)c2cc(Cc3n[nH]c(=O)c4c3NCCC4)ccc2F)CC1 [Example 660, 8-{4-fluoro-3-[(4-isonicotinoylpiperazin-1-yl)carbonyl]benzyl}-2,3,4,6-tetrahydropyrido[2,3-d]pyridazin-5(1H)-one]
1.5 | O=C(c1cccnc1)N1CCN(C(=O)c2cc(Cc3n[nH]c(=O)c4c3NCCC4)ccc2F)CC1 [Example 661, 8-(4-fluoro-3-{[4-(pyridin-3-ylcarbonyl)piperazin-1-yl]carbonyl}benzyl)-2,3,4,6-tetrahydropyrido[2,3-d]pyridazin-5(1H)-one]
1.5 | O=C(c1cnccn1)N1CCN(C(=O)c2cc(Cc3n[nH]c(=O)c4c3NCCC4)ccc2F)CC1 [Example 662, 8-(4-fluoro-3-{[4-(pyrazin-2-ylcarbonyl)piperazin-1-yl]carbonyl}benzyl)-2,3,4,6-tetrahydropyrido[2,3-d]pyridazin-5(1H)-one]
1 | O=C(c1ccc2[nH]cnc2c1)N1CCN(C(=O)c2cc(Cc3n[nH]c(=O)c4c3NCCC4)ccc2F)CC1 [Example 663, 8-(3-{[4-(1H-benzimidazol-5-ylcarbonyl)piperazin-1-yl]carbonyl}-4-fluorobenzyl)-2,3,4,6-tetrahydropyrido[2,3-d]pyridazin-5(1H)-one]
1.3 | O=C(c1cncnc1)N1CCN(C(=O)c2cc(Cc3n[nH]c(=O)c4c3NCCC4)ccc2F)CC1 [Example 664, 8-(4-fluoro-3-{[4-(pyrimidin-5-ylcarbonyl)piperazin-1-yl]carbonyl}benzyl)-2,3,4,6-tetrahydropyrido[2,3-d]pyridazin-5(1H)-one]
1.1 | O=C(c1ccccn1)N1CCN(C(=O)c2cc(Cc3n[nH]c(=O)c4c3NCCC4)ccc2F)CC1 [Example 665, 8-(4-fluoro-3-{[4-(pyridin-2-ylcarbonyl)piperazin-1-yl]carbonyl}benzyl)-2,3,4,6-tetrahydropyrido[2,3-d]pyridazin-5(1H)-one]
1.5 | CCOC(=O)N1CCN(C(=O)c2cc(Cc3n[nH]c(=O)c4c3NCCC4)ccc2F)CC1 [Example 666, ethyl 4-{2-fluoro-5-[(5-oxo-1,2,3,4,5,6-hexahydropyrido[2,3-d]pyridazin-8-yl)methyl]benzoyl}piperazine-1-carboxylate]
20 | CC1(C)C(=O)NCCN1C(=O)c1cc(Cc2n[nH]c(=O)c3c2NCCC3)ccc1F [Example 667, 8-{3-[(2,2-dimethyl-3-oxopiperazin-1-yl)carbonyl]-4-fluorobenzyl}-2,3,4,6-tetrahydropyrido[2,3-d]pyridazin-5(1H)-one]
1.9 | C[C@@H]1CN(C(=O)c2ccccc2)CCN1C(=O)c1cc(Cc2n[nH]c(=O)c3c2CCCC3)ccc1F [Example 668, 4-(3-{[(2R)-4-benzoyl-2-methylpiperazin-1-yl]carbonyl}-4-fluorobenzyl)-5,6,7,8-tetrahydrophthalazin-1(2H)-one]
1.2 | O=C(c1cc(Cc2n[nH]c(=O)c3c2CCCC3)ccc1F)N1CCN(c2ncncn2)CC1 [Example 669, 4-(4-fluoro-3-{[4-(1,3,5-triazin-2-yl)piperazin-1-yl]carbonyl}benzyl)-5,6,7,8-tetrahydrophthalazin-1(2H)-one]
1.1 | O=C(c1cscn1)N1CCN(C(=O)c2cc(Cc3n[nH]c(=O)c4c3CCCC4)ccc2F)CC1 [Example 674, 4-(4-fluoro-3-{[4-(1,3-thiazol-4-ylcarbonyl)piperazin-1-yl]carbonyl}benzyl)-5,6,7,8-tetrahydrophthalazin-1(2H)-one]
1.2 | O=C1CCC(C(=O)N2CCN(C(=O)c3cc(Cc4n[nH]c(=O)c5c4CCCC5)ccc3F)CC2)N1 (stereo not drawn) [Example 675, 4-[4-fluoro-3-({4-[(5-oxopyrrolidin-2-yl)carbonyl]piperazin-1-yl}carbonyl)benzyl]-5,6,7,8-tetrahydrophthalazin-1(2H)-one]
1.5 | CC1(C)SCN[C@@H]1C(=O)N1CCN(C(=O)c2cc(Cc3n[nH]c(=O)c4c3CCCC4)ccc2F)CC1 [Example 677, 4-{3-[(4-{[(4R)-5,5-dimethyl-1,3-thiazolidin-4-yl]carbonyl}piperazin-1-yl)carbonyl]-4-fluorobenzyl}-5,6,7,8-tetrahydrophthalazin-1(2H)-one]
1.1 | O=C(c1cc[nH]n1)N1CCN(C(=O)c2cc(Cc3n[nH]c(=O)c4c3CCCC4)ccc2F)CC1 [Example 678, 4-(4-fluoro-3-{[4-(1H-pyrazol-3-ylcarbonyl)piperazin-1-yl]carbonyl}benzyl)-5,6,7,8-tetrahydrophthalazin-1(2H)-one]
1.4 | O=C(c1cnccn1)N1CCN(C(=O)c2cc(Cc3n[nH]c(=O)c4c3CCCC4)ccc2F)CC1 [Example 679, 4-(4-fluoro-3-{[4-(pyrazin-2-ylcarbonyl)piperazin-1-yl]carbonyl}benzyl)-5,6,7,8-tetrahydrophthalazin-1(2H)-one]
1.1 | O=C(c1ccc2[nH]cnc2c1)N1CCN(C(=O)c2cc(Cc3n[nH]c(=O)c4c3CCCC4)ccc2F)CC1 [Example 680, 4-(3-{[4-(1H-benzimidazol-5-ylcarbonyl)piperazin-1-yl]carbonyl}-4-fluorobenzyl)-5,6,7,8-tetrahydrophthalazin-1(2H)-one]
2.4 | O=C(c1ccncc1)N1CCCN(C(=O)c2cc(Cc3n[nH]c(=O)c4c3NCCC4)ccc2F)CC1 [Example 682, 8-{4-fluoro-3-[(4-isonicotinoyl-1,4-diazepan-1-yl)carbonyl]benzyl}-2,3,4,6-tetrahydropyrido[2,3-d]pyridazin-5(1H)-one]
2.6 | O=C(c1cccnc1)N1CCCN(C(=O)c2cc(Cc3n[nH]c(=O)c4c3NCCC4)ccc2F)CC1 [Example 683, 8-(4-fluoro-3-{[4-(pyridin-3-ylcarbonyl)-1,4-diazepan-1-yl]carbonyl}benzyl)-2,3,4,6-tetrahydropyrido[2,3-d]pyridazin-5(1H)-one]
2.8 | O=C(c1ccccn1)N1CCCN(C(=O)c2cc(Cc3n[nH]c(=O)c4c3NCCC4)ccc2F)CC1 [Example 684, 8-(4-fluoro-3-{[4-(pyridin-2-ylcarbonyl)-1,4-diazepan-1-yl]carbonyl}benzyl)-2,3,4,6-tetrahydropyrido[2,3-d]pyridazin-5(1H)-one]
2.2 | O=C(c1cncnc1)N1CCCN(C(=O)c2cc(Cc3n[nH]c(=O)c4c3NCCC4)ccc2F)CC1 [Example 685, 8-(4-fluoro-3-{[4-(pyrimidin-5-ylcarbonyl)-1,4-diazepan-1-yl]carbonyl}benzyl)-2,3,4,6-tetrahydropyrido[2,3-d]pyridazin-5(1H)-one]
1.9 | O=C(c1ccc2nc[nH]c2c1)N1CCCN(C(=O)c2cc(Cc3n[nH]c(=O)c4c3NCCC4)ccc2F)CC1 [Example 686, 8-(3-{[4-(1H-benzimidazol-6-ylcarbonyl)-1,4-diazepan-1-yl]carbonyl}-4-fluorobenzyl)-2,3,4,6-tetrahydropyrido[2,3-d]pyridazin-5(1H)-one]
4.2 | O=C(c1ccc2ccccc2n1)N1CCCN(C(=O)c2cc(Cc3n[nH]c(=O)c4c3NCCC4)ccc2F)CC1 [Example 687, 8-(4-fluoro-3-{[4-(quinolin-2-ylcarbonyl)-1,4-diazepan-1-yl]carbonyl}benzyl)-2,3,4,6-tetrahydropyrido[2,3-d]pyridazin-5(1H)-one]
2.4 | O=C(c1cnc2ccccc2c1)N1CCCN(C(=O)c2cc(Cc3n[nH]c(=O)c4c3NCCC4)ccc2F)CC1 [Example 688, 8-(4-fluoro-3-{[4-(quinolin-3-ylcarbonyl)-1,4-diazepan-1-yl]carbonyl}benzyl)-2,3,4,6-tetrahydropyrido[2,3-d]pyridazin-5(1H)-one]
2.7 | Cc1nc2cc(C(=O)N3CCCN(C(=O)c4cc(Cc5n[nH]c(=O)c6c5NCCC6)ccc4F)CC3)ccc2[nH]1 [Example 689, 8-[4-fluoro-3-({4-[(2-methyl-1H-benzimidazol-5-yl)carbonyl]-1,4-diazepan-1-yl}carbonyl)benzyl]-2,3,4,6-tetrahydropyrido[2,3-d]pyridazin-5(1H)-one]
2.4 | CC(C)n1nnc2cc(C(=O)N3CCCN(C(=O)c4cc(Cc5n[nH]c(=O)c6c5NCCC6)ccc4F)CC3)ccc21 [Example 690, 8-[4-fluoro-3-({4-[(1-isopropyl-1H-1,2,3-benzotriazol-5-yl)carbonyl]-1,4-diazepan-1-yl}carbonyl)benzyl]-2,3,4,6-tetrahydropyrido[2,3-d]pyridazin-5(1H)-one]
2.1 | O=C(c1ccc(F)cc1)C1CCN(C(=O)c2cc(Cc3n[nH]c(=O)c4c3NCCC4)ccc2F)CC1 [Example 691, 8-(4-fluoro-3-{[4-(4-fluorobenzoyl)piperidin-1-yl]carbonyl}benzyl)-2,3,4,6-tetrahydropyrido[2,3-d]pyridazin-5(1H)-one]
1.6 | CC1(C)SCNC1C(=O)N1CCN(C(=O)c2cc(Cc3n[nH]c(=O)c4c3NCCC4)ccc2F)CC1 (stereo not drawn) [Example 692, 8-[3-({4-[(5,5-dimethyl-1,3-thiazolidin-4-yl)carbonyl]piperazin-1-yl}carbonyl)-4-fluorobenzyl]-2,3,4,6-tetrahydropyrido[2,3-d]pyridazin-5(1H)-one]

Source: patent US9283222B2 (priority 2006, dated 2016)
